#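 1) Cells in 96-well plates. 2) Compound, 48 h, 5 concentrations. 3) Linear interpolation between surrounding doses. 4) Unreached endpoint = highest concentration. At the GI50, growth is halved.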 The source made the active and inactive calls. Cut-off read from the data, not from the text of the source: active = GI50 up to about 1.1 µM and inactive = higher. Where a SMILES comes first, the peptide text is derived from it. [ ]: non-standard residue; d: D form. The star is where a group is joined. Phe(4-NO2) = N[CH](Cc1ccc([N+](=O)[O-])cc1)C(=O)O; Boc = CC(C)(C)OC(=O)*; OtBu = CC(C)(C)O*
# Legend:
# Experiment in all cases: growth of human tumour cells (NCI), 48 h
# [1] = test system: CCRF-CEM
# [2] = test system: HCT-15
# [3] = test system: HL-60
# [4] = test system: Hs-578T
# [5] = test system: KM12
# [6] = test system: LOX IMVI
# [7] = test system: MDA-MB-231
# [8] = test system: NCI-H522
# [9] = test system: NCI/ADR-RES
# [10] = test system: OVCAR-4
# [11] = test system: RXF 393
# [12] = test system: SNB-75
# [13] = test system: SW-620
# [14] = test system: TK-10
# [15] = test system: UACC-62
# [16] = test system: UO-31
# [17] = test system: CAKI-1
# [18] = test system: EKVX
# [19] = test system: SR
Compound,GI50 [1],GI50 [2],GI50 [3],GI50 [4],GI50 [5],GI50 [6],GI50 [7],GI50 [8],GI50 [9],GI50 [10],GI50 [11],GI50 [12],GI50 [13],GI50 [14],GI50 [15],GI50 [16],GI50 [17],GI50 [18],GI50 [19]
CC(=O)OC1CC2CCC1(C)C2(C)C (configuration not stated),> 100 µM (inactive),> 100 µM,> 100 µM (inactive),> 100 µM (inactive),> 100 µM (inactive),> 100 µM (inactive),> 100 µM (inactive),> 100 µM (inactive),> 100 µM (inactive),> 100 µM (inactive),> 100 µM (inactive),> 100 µM (inactive),> 100 µM (inactive),> 100 µM (inactive),> 100 µM (inactive),> 100 µM (inactive),–,–,–
N=C(N)N/N=C/c1cc(Cl)cc(Cl)c1O,43.4 µM (inactive),26.1 µM,33.2 µM (inactive),55.7 µM (inactive),45.1 µM (inactive),51.4 µM (inactive),62.7 µM (inactive),56.5 µM (inactive),35.5 µM (inactive),46.9 µM (inactive),58.5 µM (inactive),30.2 µM (inactive),97.5 µM (inactive),69 µM (inactive),41 µM (inactive),29.7 µM (inactive),38.7 µM (inactive),38.9 µM (inactive),–
COC(C)(C)[C@@H]1CCCN1C1=C(C)C(=O)OC1,> 100 µM (inactive),> 100 µM,> 100 µM (inactive),> 100 µM (inactive),–,> 100 µM (inactive),> 100 µM (inactive),–,> 100 µM (inactive),–,> 100 µM (inactive),> 10 µM (inactive),–,–,> 100 µM (inactive),> 100 µM (inactive),> 100 µM (inactive),–,> 100 µM (inactive)
CCOC(=O)/C(C#N)=C/c1ccc(CO)o1,–,> 100 µM,–,> 100 µM (inactive),> 100 µM (inactive),> 100 µM (inactive),> 100 µM (inactive),> 100 µM (inactive),> 100 µM (inactive),> 100 µM (inactive),> 100 µM (inactive),> 100 µM (inactive),> 100 µM (inactive),> 100 µM (inactive),> 100 µM (inactive),–,> 100 µM (inactive),> 100 µM (inactive),> 100 µM (inactive)
O=C1CCNC(=O)NC1,> 100 µM (inactive),> 100 µM,> 100 µM (inactive),–,> 100 µM (inactive),> 100 µM (inactive),–,> 100 µM (inactive),–,> 100 µM (inactive),> 100 µM (inactive),> 100 µM (inactive),> 100 µM (inactive),> 100 µM (inactive),> 100 µM (inactive),> 100 µM (inactive),> 100 µM (inactive),> 100 µM (inactive),> 100 µM (inactive)
CC(=O)NC(CCC(=O)OC(C)(C)C)C(=O)NC(CCC(=O)OC(C)(C)C)C(=O)NC(Cc1ccc([N+](=O)[O-])cc1)C(=O)NC(CCCCNC(=O)OC(C)(C)C)C(=O)NC(CCCCNC(=O)OC(C)(C)C)C(=O)NCC(=O)O (configuration not stated) (Ac-E(OtBu)E(OtBu)[Phe(4-NO2)]K(Boc)K(Boc)G-OH; configuration not given here),> 100 µM (inactive),> 100 µM,> 100 µM (inactive),–,> 100 µM (inactive),> 100 µM (inactive),> 100 µM (inactive),> 100 µM (inactive),> 100 µM (inactive),> 100 µM (inactive),> 100 µM (inactive),> 100 µM (inactive),> 100 µM (inactive),> 100 µM (inactive),> 100 µM (inactive),> 100 µM (inactive),> 100 µM (inactive),> 100 µM (inactive),> 100 µM (inactive)

# — ChEMBL document CHEMBL1201862, “PubChem BioAssay data set” (2004)
